Test results from patent US20010009995A1, “Oxybutynin therapy” (priority 1998, published 2001).

Conditions: human, in vivo

Compound: CCNCC#CCOC(=O)C(O)(c1ccccc1)C1CCCCC1 (stereo not shown) [DESOXY, desethyloxybutynin]
- t1/2 life of DESOXY compared to OXY: shorter
